The target in this assay is T1, WIZ protein (HiBit-WIZ fusion protein) (Homo sapiens, UniProt O95785+Q96SW2).
T1 construct: expressed in transfected cells
The experiment in a line: Quantification of WIZ protein levels in HiBit tag fusion protein assay (WIZ HiBit assay in 293T cells). The class given is cell-based. To be noted: for Dmax at 25 µM: 100 − Amax; for Dmax at 25 µM / remaining activity at 25 µM: 293T cells; for remaining activity at 25 µM: DMSO-normalized, curve-fitted percentage of WIZ-HiBit remaining at 25 uM; for DC50: WIZ HiBit assay in 293T cells, 10-point, 5-fold dose response, highest concentration 25 μM, about 18 hours, read-out: WIZ AC50. Set-up: remaining activity / Dmax: dose or concentration left out as unconfirmed. Here is the method:
The HiBit system from Promega was used to develop high-throughput and quantitative assays to measure changes in WIZ protein levels in response to compounds. The HiBit tag was derived from a split Nanoluciferase and has the following protein sequence: […] (SEQ ID NO: 1). The complementary fragment of Nanoluciferase (known as LgBit, from Promega), was added to the HiBit tag to form an active Nanoluciferase enzyme whose activity can be precisely measured. In this way, the levels of a fusion protein with the HiBit tag can be quantified in cell lysates.
Lentiviral vectors, based on the Invitrogen™ pLenti6.2/V5 DEST backbone were constructed that places the HiBit tag upstream of WIZ and expressed the fusion protein from an HSVTK promotor.
To ensure moderate and consistent expression of the HiBit-WIZ fusion protein across all cells in the population, stable cell lines were constructed from cells harboring a single copy of the construct. Lentivirus packaged with the constructs were made using the ViraPower™ kit from Invitrogen™. 293T cells from ATCC (Catalog number: CRL-3216), were infected with the virus at low multiplicity of infection and selected by 5 μg/mL blasticidin in culture media for 2 weeks.
The levels of HiBit-WIZ tagged fusion proteins in compound-treated cell lines were measured as follows:
On day 1, cells were diluted to 1.0×10^6 cells/ml in normal growth medium. 20 μL of cell suspension were plated in each well of a solid white 384-well plate. Plates were incubated overnight in a 37° C. and 5% CO2 humidified tissue culture incubator.
On day 2, serial dilutions of compounds were made in 384-well plates. Compound plates were set up with DMSO in columns 1, 2, 23, 24, and 10-point compound dilution series in column 3-12 and column 13-22. 10 mM stock solution of compound were placed into column 3 or 13 and a 1:5 serial dilution was carried out until there was a 10-point dilution series per compound. 50 nL of diluted compounds were transferred into the plated cells by Echo® (Labcyte) acoustic transfer. The highest concentration of compound was 25 μM. Plates were incubated overnight (about 18 hours) in a 37° C. and 5% CO2 humidified tissue culture incubator.
On day 3, plates were removed from the incubator and allowed to equilibrate at room temperature for 60 minutes. HiBit substrate (Nano-Glo® HiBit Lytic Detection System, Promega Catalogue number: N3050) was added as described by the manufacturers protocols. Plates were incubated at room temperature for 30 minutes and luminescence was read using an EnVision® reader (PerkinElmer®). Data was analyzed and visualized using the Spotfire® software package.
WIZ Degradation Activity of Compounds (Table 1)
WIZ Amax reflects the DMSO-normalized, curve-fitted percentage of WIZ-HiBit remaining at 25 uM. It was calculated by normalizing […] controls to 100%, parametric curve fitting of the dose response data (10-point, 5-fold), followed by calculation of response at 25 uM using the fitted equation (nd=not determined).
(In general: With HiBiT, luminescence reflects the tagged protein that the partner subunit can reach.)

The mark [1] stands for this setting: HEK-293T, read-out: % degradation of WIZ (100 − Amax).

Structures are written as SMILES.

T1 sequence (O95785 whole entry, the tested form may be a part): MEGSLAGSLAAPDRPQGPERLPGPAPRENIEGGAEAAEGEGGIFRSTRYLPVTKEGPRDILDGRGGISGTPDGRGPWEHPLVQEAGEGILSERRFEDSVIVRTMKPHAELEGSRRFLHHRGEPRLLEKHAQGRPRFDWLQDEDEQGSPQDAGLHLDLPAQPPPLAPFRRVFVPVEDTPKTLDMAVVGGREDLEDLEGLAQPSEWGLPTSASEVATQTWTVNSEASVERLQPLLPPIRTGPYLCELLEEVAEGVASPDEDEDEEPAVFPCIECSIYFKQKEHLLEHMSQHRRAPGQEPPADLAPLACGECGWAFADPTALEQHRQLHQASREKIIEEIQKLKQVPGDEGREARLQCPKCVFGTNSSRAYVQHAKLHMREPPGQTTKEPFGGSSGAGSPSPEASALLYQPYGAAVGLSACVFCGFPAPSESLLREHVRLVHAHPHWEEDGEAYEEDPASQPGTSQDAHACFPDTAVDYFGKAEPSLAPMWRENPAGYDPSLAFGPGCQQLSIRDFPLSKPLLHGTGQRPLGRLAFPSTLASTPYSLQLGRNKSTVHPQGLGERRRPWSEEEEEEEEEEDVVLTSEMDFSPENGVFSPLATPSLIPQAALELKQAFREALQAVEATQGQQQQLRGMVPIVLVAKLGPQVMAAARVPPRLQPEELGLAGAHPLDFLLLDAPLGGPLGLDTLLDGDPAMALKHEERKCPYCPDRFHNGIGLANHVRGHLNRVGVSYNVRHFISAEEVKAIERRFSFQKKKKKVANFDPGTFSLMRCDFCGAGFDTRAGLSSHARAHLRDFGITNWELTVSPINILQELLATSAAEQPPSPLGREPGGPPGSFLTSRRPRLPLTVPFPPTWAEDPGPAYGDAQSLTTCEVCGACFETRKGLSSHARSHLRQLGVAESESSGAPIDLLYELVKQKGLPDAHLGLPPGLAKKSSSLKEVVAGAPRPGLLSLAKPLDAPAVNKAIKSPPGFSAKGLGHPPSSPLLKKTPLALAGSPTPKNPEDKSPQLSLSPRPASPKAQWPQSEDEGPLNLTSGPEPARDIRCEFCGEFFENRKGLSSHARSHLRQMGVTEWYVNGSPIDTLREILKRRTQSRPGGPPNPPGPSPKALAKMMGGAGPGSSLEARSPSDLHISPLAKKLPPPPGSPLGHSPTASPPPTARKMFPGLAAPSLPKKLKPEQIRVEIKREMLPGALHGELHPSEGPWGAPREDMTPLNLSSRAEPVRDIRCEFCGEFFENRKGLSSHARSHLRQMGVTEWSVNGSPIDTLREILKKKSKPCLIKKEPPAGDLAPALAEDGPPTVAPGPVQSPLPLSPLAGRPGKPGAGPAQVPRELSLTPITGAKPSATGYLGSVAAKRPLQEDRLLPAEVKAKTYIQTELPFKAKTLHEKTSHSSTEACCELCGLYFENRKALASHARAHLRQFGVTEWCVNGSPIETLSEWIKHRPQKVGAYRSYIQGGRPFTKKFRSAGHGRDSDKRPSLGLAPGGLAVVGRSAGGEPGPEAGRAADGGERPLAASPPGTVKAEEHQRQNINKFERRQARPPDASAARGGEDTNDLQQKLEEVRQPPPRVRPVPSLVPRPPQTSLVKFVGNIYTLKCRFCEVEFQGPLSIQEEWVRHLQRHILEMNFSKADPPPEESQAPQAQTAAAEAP
T1 sequence (Q96SW2 whole entry, the tested form may be a part): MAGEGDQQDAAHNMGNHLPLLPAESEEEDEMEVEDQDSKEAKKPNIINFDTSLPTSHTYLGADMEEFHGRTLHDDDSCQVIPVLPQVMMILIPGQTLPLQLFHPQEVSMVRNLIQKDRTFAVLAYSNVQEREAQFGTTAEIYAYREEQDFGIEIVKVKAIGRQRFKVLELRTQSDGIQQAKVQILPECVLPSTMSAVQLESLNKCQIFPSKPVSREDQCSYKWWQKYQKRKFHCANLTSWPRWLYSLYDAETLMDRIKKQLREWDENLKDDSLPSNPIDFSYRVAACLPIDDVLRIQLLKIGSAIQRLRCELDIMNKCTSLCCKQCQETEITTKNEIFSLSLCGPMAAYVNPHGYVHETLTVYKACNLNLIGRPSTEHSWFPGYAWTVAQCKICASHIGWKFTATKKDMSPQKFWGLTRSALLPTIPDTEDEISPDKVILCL
T1 sequence (Q16531 whole entry partner, the tested form may be a part): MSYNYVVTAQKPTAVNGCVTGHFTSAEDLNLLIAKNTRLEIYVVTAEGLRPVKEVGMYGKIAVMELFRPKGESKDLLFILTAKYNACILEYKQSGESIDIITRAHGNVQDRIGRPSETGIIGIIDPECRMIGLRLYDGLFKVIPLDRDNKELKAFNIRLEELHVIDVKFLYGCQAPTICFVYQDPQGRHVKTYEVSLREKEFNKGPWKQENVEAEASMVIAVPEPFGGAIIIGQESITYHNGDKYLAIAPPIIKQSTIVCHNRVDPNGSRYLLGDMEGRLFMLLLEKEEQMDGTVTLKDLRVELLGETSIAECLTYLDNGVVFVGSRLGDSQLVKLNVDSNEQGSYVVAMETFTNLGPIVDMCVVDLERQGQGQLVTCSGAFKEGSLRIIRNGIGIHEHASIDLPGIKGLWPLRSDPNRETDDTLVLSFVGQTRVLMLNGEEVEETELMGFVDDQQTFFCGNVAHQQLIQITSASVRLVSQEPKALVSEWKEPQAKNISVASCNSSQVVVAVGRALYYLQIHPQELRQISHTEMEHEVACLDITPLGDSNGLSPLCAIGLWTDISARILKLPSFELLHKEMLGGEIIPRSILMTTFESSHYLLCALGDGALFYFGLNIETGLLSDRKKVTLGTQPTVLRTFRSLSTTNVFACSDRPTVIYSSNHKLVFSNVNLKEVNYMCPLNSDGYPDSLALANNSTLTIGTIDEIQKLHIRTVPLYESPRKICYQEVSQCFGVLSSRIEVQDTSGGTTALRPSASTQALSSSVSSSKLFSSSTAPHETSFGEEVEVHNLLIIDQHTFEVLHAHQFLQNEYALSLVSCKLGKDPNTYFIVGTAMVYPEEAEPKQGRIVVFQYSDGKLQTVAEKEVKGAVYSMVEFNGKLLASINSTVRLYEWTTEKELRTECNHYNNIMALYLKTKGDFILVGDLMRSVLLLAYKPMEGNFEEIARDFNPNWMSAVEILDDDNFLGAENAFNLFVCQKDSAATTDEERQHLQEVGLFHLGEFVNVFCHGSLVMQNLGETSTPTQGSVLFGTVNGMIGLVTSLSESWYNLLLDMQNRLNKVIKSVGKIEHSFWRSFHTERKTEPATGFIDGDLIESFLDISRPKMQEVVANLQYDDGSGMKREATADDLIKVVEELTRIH

Take `CC(C)CN1CCC(C(C)c2ccn3ncc(N4CCC(=O)NC4=O)c3c2)CC1` (stereo not drawn) [Example 267, 1-(5-(1-(1-isobutylpiperidin-4-yl)ethyl)pyrazolo[1,5-a]pyridin-3-yl)dihydropyrimidine-2,4(1H,3H)-dione]: the DC50 is 100 nM. The Dmax at 25 µM under setting [1] is 86%. For the same compound, under “HEK-293T, read-out: WIZ Amax”, the remaining activity at 25 µM is 14%.
With `O=C1CCN(c2cnn3ccc(CC4CCN(CCC5CCOCC5)CC4)cc23)C(=O)N1` [Example 11, 1-(5-((1-(2-(tetrahydro-2H-pyran-4-yl)ethyl)piperidin-4-yl)methyl)pyrazolo[1,5-a]pyridin-3-yl)dihydropyrimidine-2,4(1H,3H)-dione], the DC50 was determined as 55 nM. Besides, the Dmax at 25 µM under setting [1] was 84%. The remaining activity at 25 µM (HEK-293T, read-out: WIZ Amax) was determined as 16%.
Turning to `COCC(F)(F)CN1CC[C@@H](Cc2ccn3ncc(N4CCC(=O)NC4=O)c3c2)C[C@@H]1C` [Example 278, 1-(5-(((2S,4R)-1-(2,2-difluoro-3-methoxypropyl)-2-methylpiperidin-4-yl)methyl)pyrazolo[1,5-a]pyridin-3-yl)dihydropyrimidine-2,4(1H,3H)-dione], the DC50 is 66 nM. Moreover, the Dmax under setting [1] stood at 72%. In addition, under “HEK-293T, read-out: WIZ Amax”, the remaining activity came to 28%.
Consider `CC(CN1CCC(Cc2ccn3ncc(N4CCC(=O)NC4=O)c3c2)CC1)C1CCCCC1` (stereo not drawn) [Example 10, 1-(5-((1-(2-cyclohexylpropyl)piperidin-4-yl)methyl)pyrazolo[1,5-a]pyridin-3-yl)dihydropyrimidine-2,4(1H,3H)-dione], for which the DC50 worked out at 4 nM. The Dmax at 25 µM under setting [1] came to 84%. The remaining activity at 25 µM (HEK-293T, read-out: WIZ Amax) is 16%.
For `CO[C@H]1C[C@@H](CN2CC[C@@H](Cc3ccn4ncc(N5CCC(=O)NC5=O)c4c3)C[C@@H]2C)C1` [Example 303, 1-(5-(((2S,4R)-1-(((1s,3R)-3-methoxycyclobutyl)methyl)-2-methylpiperidin-4-yl)methyl)pyrazolo[1,5-a]pyridin-3-yl)dihydropyrimidine-2,4(1H,3H)-dione], in that order: 46 nM, 80% and 20%.
For `CC(C)CN1CCC(Cc2ccn3ncc(N4CCC(=O)NC4=O)c3c2)CC1(C)C` (stereo not drawn) [Example 79, 1-(5-((1-isobutyl-2,2-dimethylpiperidin-4-yl)methyl)pyrazolo[1,5-a]pyridin-3-yl)dihydropyrimidine-2,4(1H,3H)-dione], in that order: 65 nM, 65% and 35%.
The corresponding values for `CC(C)CN1CCC(F)(Cc2ccn3ncc(N4CCC(=O)NC4=O)c3c2)CC1` [Example 124, 1-(5-((4-fluoro-1-isobutylpiperidin-4-yl)methyl)pyrazolo[1,5-a]pyridin-3-yl)dihydropyrimidine-2,4(1H,3H)-dione] are 502 nM, 58% and 42%.
For the compound `C[C@H]1CN(Cc2ccn3ncc(N4CCC(=O)NC4=O)c3c2)CCN1CC1CCC1` [Example 213, (S)-1-(5-((4-(cyclobutylmethyl)-3-methylpiperazin-1-yl)methyl)pyrazolo[1,5-a]pyridin-3-yl)dihydropyrimidine-2,4(1H,3H)-dione], the DC50 stood at 48 nM. Further, the Dmax at 25 µM under setting [1] turned out to be 81%. Moreover, for the setting “HEK-293T, read-out: WIZ Amax”, the remaining activity at 25 µM is 19%.
The corresponding values for `O=C1CCN(c2cnn3ccc(CC4CNC4)cc23)C(=O)N1` [Example 133, 1-(5-(azetidin-3-ylmethyl)pyrazolo[1,5-a]pyridin-3-yl)dihydropyrimidine-2,4(1H,3H)-dione] are 4800 nM, 21% and 79%.
On to `CCC(CC)N1CCN(Cc2ccn3ncc(N4CCC(=O)NC4=O)c3c2)CC1` [Example 164], for which the DC50 came out at 323 nM. Besides, the Dmax at 25 µM under setting [1] is 69%. For the setting “HEK-293T, read-out: WIZ Amax”, the remaining activity at 25 µM was 31%.
For `O=C1CCN(c2cnn3ccc(CN4CCCNCC4)cc23)C(=O)N1` [Example 248, 1-(5-((1,4-diazepan-1-yl)methyl)pyrazolo[1,5-a]pyridin-3-yl)dihydropyrimidine-2,4(1H,3H)-dione], in that order: more than 25000 nM, 0% and 100%.
For `O=C1CCN(c2cnn3ccc(CC4CCN(CCc5c[nH]cn5)CC4)cc23)C(=O)N1` [Example 120, 1-(5-((1-(2-(1H-imidazol-4-yl)ethyl)piperidin-4-yl)methyl)pyrazolo[1,5-a]pyridin-3-yl)dihydropyrimidine-2,4(1H,3H)-dione], in that order: 1430 nM, 66% and 34%.
Regarding `O=C1CCN(c2cnn3ccc(CC4CCN(S(=O)(=O)C5CC5)CC4)cc23)C(=O)N1` [Example 89], the DC50 was 285 nM. Also, the Dmax at 25 µM under setting [1] was found to be 77%. Besides, the remaining activity at 25 µM (HEK-293T, read-out: WIZ Amax) worked out at 23%.
Turning to `CC(C)CN1CCN(Cc2ccn3ncc(-n4cc(F)c(=O)[nH]c4=O)c3c2)C[C@@H]1C` [Example 358, (S)-5-fluoro-1-(5-((4-isobutyl-3-methylpiperazin-1-yl)methyl)pyrazolo[1,5-a]pyridin-3-yl)pyrimidine-2,4(1H,3H)-dione], the DC50 is 128 nM. Under setting [1], the Dmax at 25 µM is 86%. In addition, the remaining activity at 25 µM (HEK-293T, read-out: WIZ Amax) is 14%.
For `CC1(C)CN(Cc2ccn3ncc(N4CCC(=O)NC4=O)c3c2)CCN1CC1CCOCC1` [Example 232, 1-(5-((3,3-dimethyl-4-((tetrahydro-2H-pyran-4-yl)methyl)piperazin-1-yl)methyl)pyrazolo[1,5-a]pyridin-3-yl)dihydropyrimidine-2,4(1H,3H)-dione], the DC50 was found to be 206 nM. Under setting [1], the Dmax at 25 µM worked out at 48%. The remaining activity at 25 µM (HEK-293T, read-out: WIZ Amax) was found to be 52%.
For `O=C1CCN(c2cnn3ccc(CN4C[C@H]5C[C@@H]4CN5CC4CCCCC4)cc23)C(=O)N1` [Example 234, 1-(5-(((1R,4R)-5-(cyclohexylmethyl)-2,5-diazabicyclo[2.2.1]heptan-2-yl)methyl)pyrazolo[1,5-a]pyridin-3-yl)dihydropyrimidine-2,4(1H,3H)-dione], in that order: 942 nM, 42% and 58%.
For `O=C1CCN(c2cnn3ccc(CN4C[C@@H]5C[C@H]4CN5CC4CCCCC4)cc23)C(=O)N1` [Example 236, 1-(5-(((1S,4S)-5-(cyclohexylmethyl)-2,5-diazabicyclo[2.2.1]heptan-2-yl)methyl)pyrazolo[1,5-a]pyridin-3-yl)dihydropyrimidine-2,4(1H,3H)-dione], the DC50 was found to be 3200 nM. Also, the Dmax at 25 µM under setting [1] is 5%. For the same compound, the remaining activity at 25 µM (HEK-293T, read-out: WIZ Amax) is 95%.
The corresponding values for `O=C1CCN(c2cnn3ccc(CC4CCN(CC5CCCCC5)CC4)cc23)C(=O)N1` [Example 1, 1-(5-((1-(cyclohexylmethyl)piperidin-4-yl)methyl)pyrazolo[1,5-a]pyridin-3-yl)dihydropyrimidine-2,4(1H,3H)-dione] are 20 nM, 91% and 9%.
In the case of `C[C@H]1C[C@H](Cc2ccn3ncc(N4CCC(=O)NC4=O)c3c2)CCN1C(=O)N1CCCC1` [Example 295], the DC50 is 24 nM. For the same compound, under setting [1], the Dmax at 25 µM was 80%. In addition, the remaining activity at 25 µM (HEK-293T, read-out: WIZ Amax) was found to be 20%.

Source of the values: patent US11787785B2 (NOVARTIS AG, priority 2021, dated 2023).
